Like-named read-outs stand apart in the source and are kept apart here.
Tests used:
Format in all cases: cell-based
[1] = system: clinically isolated HIV strain A; assay: Cellular anti-viral assay in MT4-LTR-EGFP cells, mutant strain A; details: for EC50: Human immunodeficiency virus 1, 72 h, read-out: pEC50 virus strain A (converted); for pEC50 virus strain A: MT4-LTR-EGFP cells, three days, GFP signal
Procedure: (§1) Because of the increasing emergence of drug resistant HIV strains, the present compounds were tested for their potency against clinically isolated HIV strains harboring several mutations. These mutations are associated with resistance to protease inhibitors and result in viruses that show various degrees of phenotypic cross-resistance to the currently commercially available drugs such as for instance saquinavir, ritonavir, nelfinavir, indinavir and amprenavir. The viral strains coded as A, B, C and D contain mutations as indicated below in Table 2.
(§2) The cellular assay was performed according to the following procedure. HIV- or mock-infected MT4-LTR-EGFP cells were incubated for three days in the presence of various concentrations of the compounds according to the invention. Upon infection, the viral tat protein activates the GFP reporter. At the end of the incubation period, the GFP signal was measured. In the virus control samples (in the absence of any inhibitor) the maximal fluorescent signal was obtained. The inhibitory activity of the compound was monitored on the virus-infected cells and was expressed as EC50. These values represent the amount of the compound required to protect 50% of the cells from virus infection. (Table 3).

[2] = system: wild type laboratory HIV strain (WT IIIB-2-001); assay: Cellular anti-viral assay in MT4-LTR-EGFP cells, wild type strain; details: for EC50: Human immunodeficiency virus 1, IIIB, 72 h, read-out: pEC50 WT-IIIB-2-001 (converted)
Procedure: The compounds were tested in a cellular assay using the MT4-LTR-EGFP cells for anti-viral activity.
as §2, with “In the virus control samples (in the absence of any inhibitor) the maximal fluorescent signal was obtained.” left out, “infection.” for “infection. (Table 3).”

[3] = system: clinically isolated HIV strain C; assay: Cellular anti-viral assay in MT4-LTR-EGFP cells, mutant strain C; details: for EC50: Human immunodeficiency virus 1, 72 h, read-out: pEC50 virus strain C (converted); for pEC50 virus strain C: MT4-LTR-EGFP cells, three days, GFP signal
Procedure: as §1, §2

[4] = system: clinically isolated HIV strain B; assay: Cellular anti-viral assay in MT4-LTR-EGFP cells, mutant strain B; details: for EC50: Human immunodeficiency virus 1, 72 h, read-out: pEC50 virus strain B (converted); for pEC50 virus strain B: MT4-LTR-EGFP cells, three days, GFP signal
Procedure: as §1, §2

[5] = system: clinically isolated HIV strain D; assay: Cellular anti-viral assay in MT4-LTR-EGFP cells, mutant strain D; details: for EC50: Human immunodeficiency virus 1, 72 h, read-out: pEC50 virus strain D (converted); for pEC50 virus strain D: MT4-LTR-EGFP cells, three days, GFP signal
Procedure: as §1, §2

[6] = MT4-LTR-EGFP cells, three days, GFP signal

Compound	EC50 [1] [nM]	EC50 [2, 6] [nM]	EC50 [3] [nM]	EC50 [4] [nM]	EC50 [5] [nM]	pEC50 virus strain A [1]	pEC50 WT-IIIB-2-001 [2, 6]	pEC50 virus strain C [3]	pEC50 virus strain B [4]	pEC50 virus strain D [5]	pEC50 WT-IIIB-2-001 [2]
COCCN1CCC(Nc2nc3ccc(S(=O)(=O)N(CC(C)C)C[C@@H](O)[C@H](Cc4ccccc4)NC(=O)O[C@H]4CO[C@H]5OCC[C@H]54)cc3s2)C1 (stereo in doubt) [Compound 17, [1-Benzyl-2-hydroxy-3-(isobutyl-{2-[1-(2-methoxy-ethyl)-pyrrolidin-3-ylamino]-benzothiazole-6-sulfonyl}-amino)-propyl]-carbamic acid hexahydro-furo[2,3-b]furan-3-yl ester]	13.2	18.6	3390	17	–	–	–	–	–	–	–
CC(C)CN(C[C@@H](O)[C@H](Cc1ccccc1)NC(=O)O[C@H]1CO[C@H]2OCC[C@H]21)S(=O)(=O)c1ccc2nc(NC3CCN(Cc4cccnc4)C3)sc2c1 (stereo in doubt) [Compound 21, (1-Benzyl-2-hydroxy-3-{isobutyl-[2-(1-pyridin-3-ylmethyl-pyrrolidin-3-ylamino)-benzothiazole-6-sulfonyl}-amino]-propyl)-carbamic acid hexahydro-furo[2,3-b]furan-3-yl ester]	4.9	11.2	1820	14.5	7.08	–	–	–	–	–	–
CC(C)CN(C[C@@H](O)[C@H](Cc1ccccc1)NC(=O)O[C@H]1CO[C@H]2OCC[C@H]21)S(=O)(=O)c1ccc2nc(NC3CCN(C(C)C)CC3)sc2c1 [Compound 5]	–	–	–	–	–	7.89	7.72	5.38	7.57	7.86	–
CC(C)CN1CCC(Nc2nc3ccc(S(=O)(=O)N(CC(C)C)C[C@@H](O)[C@H](Cc4ccccc4)NC(=O)O[C@H]4CO[C@H]5OCC[C@H]54)cc3s2)CC1 [Compound 6]	–	–	–	–	–	7.84	8.31	5.46	7.58	7.86	–
COCCN1CCC(Nc2nc3ccc(S(=O)(=O)N(CC(C)C)C[C@@H](O)[C@H](Cc4ccccc4)NC(=O)O[C@H]4CO[C@H]5OCC[C@H]54)cc3s2)CC1 [Compound 8]	–	–	–	–	–	6.65	7.44	5.25	7.00	–	–
CC(C)CN(C[C@@H](O)[C@H](Cc1ccccc1)NC(=O)O[C@H]1CO[C@H]2OCC[C@H]21)S(=O)(=O)c1ccc2nc(NC3CCN(C(=O)CN(C)C)CC3)sc2c1 [Compound 9]	–	–	–	–	–	6.99	6.56	5.00	6.59	6.99	–
CC(C)CN(C[C@@H](O)[C@H](Cc1ccccc1)NC(=O)O[C@H]1CO[C@H]2OCC[C@H]21)S(=O)(=O)c1ccc2nc(NC3CCN(C(=O)CN4CCOCC4)CC3)sc2c1 [Compound 10]	–	–	–	–	–	6.84	6.53	5.11	6.52	6.62	–
CC(C)CN(C[C@@H](O)[C@H](Cc1ccccc1)NC(=O)O[C@H]1CO[C@H]2OCC[C@H]21)S(=O)(=O)c1ccc2nc(NC3CCN(Cc4ccccc4)CC3)sc2c1 [Compound 11, (1-Benzyl-3-{[2-(1-benzyl-piperidin-4-ylamino)-benzothiazole-6-sulfonyl]-isobutyl-amino}-2-hydroxy-propyl)-carbamic acid hexahydro-furo[2,3-b]furan-3-yl ester]	22.4	2.51	5750	33.9	18.6	–	–	–	–	–	–
CC(C)CN(C[C@@H](O)[C@H](Cc1ccccc1)NC(=O)O[C@H]1CO[C@H]2OCC[C@H]21)S(=O)(=O)c1ccc2nc(NC3CCN(Cc4ccncc4)CC3)sc2c1 [Compound 12]	–	–	–	–	–	8.26	8.34	5.19	7.71	8.27	–
CC(C)CN(C[C@@H](O)[C@H](Cc1ccccc1)NC(=O)O[C@H]1CO[C@H]2OCC[C@H]21)S(=O)(=O)c1ccc2nc(NC3CCN(Cc4ccccn4)CC3)sc2c1 [Compound 13]	–	–	–	–	–	8.06	8.18	6.04	7.94	7.98	–
CC(C)CN(C[C@@H](O)[C@H](Cc1ccccc1)NC(=O)O[C@H]1CO[C@H]2OCC[C@H]21)S(=O)(=O)c1ccc2nc(NC3CCN(Cc4cccnc4)CC3)sc2c1 [Compound 14]	–	–	–	–	–	7.85	–	5.90	7.78	7.84	7.85
CC(C)CN(C[C@@H](O)[C@H](Cc1ccccc1)NC(=O)O[C@H]1CO[C@H]2OCC[C@H]21)S(=O)(=O)c1ccc2nc(NC3CCN(Cc4cncs4)CC3)sc2c1 [Compound 15]	–	–	–	–	–	8.38	–	5.46	7.71	8.24	8.24
CC(C)CN(C[C@@H](O)[C@H](Cc1ccccc1)NC(=O)O[C@H]1CO[C@H]2OCC[C@H]21)S(=O)(=O)c1ccc2nc(NC3CCNC3)sc2c1 (stereo partly shown) [Compound 16]	–	–	–	–	–	5.93	6.82	5.90	5.89	–	–
COCCN1CCC(Nc2nc3ccc(S(=O)(=O)N(CC(C)C)CC(O)C(Cc4ccccc4)NC(=O)OC4COC5OCCC45)cc3s2)C1 (stereo not shown) [Compound 18]	–	–	–	–	–	7.61	7.76	5.32	7.24	–	–
CC(C)CN1CCC(Nc2nc3ccc(S(=O)(=O)N(CC(C)C)CC(O)C(Cc4ccccc4)NC(=O)OC4COC5OCCC45)cc3s2)C1 (stereo not shown) [Compound 19]	–	–	–	–	–	7.84	8.42	5.35	7.33	7.75	–
CC(C)CN1CCC(Nc2nc3ccc(S(=O)(=O)N(CC(C)C)CC(O)C(Cc4ccccc4)NC(=O)OC4COC5OCCC45)cc3s2)C1 (stereo not shown) [Compound 20]	–	–	–	–	–	8.23	8.27	5.59	7.84	8.12	–
CC(C)CN(CC(O)C(Cc1ccccc1)NC(=O)OC1COC2OCCC12)S(=O)(=O)c1ccc2nc(NC3CCN(Cc4ccncc4)C3)sc2c1 (stereo not shown) [Compound 22]	–	–	–	–	–	–	7.71	6.19	7.77	–	–
CC(C)CN(CC(O)C(Cc1ccccc1)NC(=O)OC1COC2OCCC12)S(=O)(=O)c1ccc2nc(NC3CCN(Cc4cncs4)C3)sc2c1 (stereo not shown) [Compound 23]	–	–	–	–	–	8.56	7.97	5.36	7.56	8.27	–
CC(C)CN(CC(O)C(Cc1ccccc1)NC(=O)OC1COC2OCCC12)S(=O)(=O)c1ccc2nc(NC3CCN(Cc4cncs4)C3)sc2c1 (stereo not shown) [Compound 24]	–	–	–	–	–	7.91	8.22	5.08	7.70	7.89	–
CC(C)CN(CC(O)C(Cc1ccccc1)NC(=O)OC1COC2OCCC12)S(=O)(=O)c1ccc2nc(NC3CCN(Cc4ccccn4)C3)sc2c1 (stereo not shown) [Compound 25]	–	–	–	–	–	5.59	5.77	<4.49	5.04	5.41	–
